How the values were obtained:
[1] = tested on: response threshold on applying pressure to the tail; test: Analgesic Activity: Tail pressure test; type: in vivo, mouse (male Rockland); details: oral; 15 and 60 min after administration; relative potency (control 0, ASA 1.00); dose mg/kg: ASA 100, XAA 50, XAA ester 74 (eq. 50 XAA), TAA 50, TAA ester 82 (eq. 50 TAA)
Experimental: Tail pressure test: Ten male mice of Rockland strain weighing 20-25 g were used for each compound tested. The response threshold on applying pressure to the tail was determined with an analgesy meter at 15 and 60 minutes after oral administration of the test compound. The pressure at which a struggle was elicited was read.

[2] = tested on: pain threshold for the inflamed feet (carrageenin); test: Analgesic Activity: Randall-Selitto's method; type: in vivo, mouse (male Rockland); details: oral, 30 min before carrageenin; hourly for 3 hours; relative potency (control 0); dose mg/kg: ASA 100, XAA 50, XAA ester 74 (eq. 50 XAA), TAA 50, TAA ester 82 (eq. 50 TAA)
Experimental: Randall-Selitto's method: Ten male mice of Rockland strain weighing 25 g were used for each compound tested. 0.1 ml of 1% carrageenin saline suspension was injected into the subplantar region of the right foot. The test compounds were orally administered 30 minutes before the injection. At hourly intervals for 3 hours after the carrageenin injection, the pain threshold for the inflammed feet determining was measured the amount of pressure with an analgesy meter.

[3] = tested on: gastric epithelium; test: Influence on the gastro-intestinal tract (ulceration, pylorus-ligated, method of Shay et al.); type: in vivo, rat (male Sprague Dawley); details: oral, dose mg/kg: phenylbutazone 75, ASA 100, XAA 120, XAA ester 196, TAA 60, TAA ester 84.5; for Increase (of ulceration evaluation): increase over control (distilled water, 3.0), 1 hour; for Evaluation (ulceration of the gastric epithelium): 1 hour after administration, score 0=no hemorrhage sites to 6=perforated ulcer, control 3.0
Experimental: Influence on the gastro-intestinal tract
Ten male rats of Sprague Dawley strain, weighing 200-300 g were used for each compound tested. According to the method of Shay et al. (Shay, H., Komapov, S. A., Feb. S. S., Meranir, D., Gruenstein, M., Siplet, H. Gastroenterology 5, 43, 1945), under anesthesia, the pylorus was ligated and 4 hours later test compounds were orally administered. The animal was sacrificed 1 hour after compound administration. The stomach was removed and examined for macroscopic damage. The ulceration of the gastric epithelium was evaluated by the following evaluation: 0=no hemorrhage sites; 1=some isolated hemorrhagic sites; 2=redness of the gastric epithelium; 3=1 to 5 small ulcers with a diameter smaller than 3 mm; 4=many small ulcers; 5=ulcers-greater than 3 mm; 6=perforated ulcer.

[4] = tested on: Carrageenin induced edema; test: Anti-inflammatory Activity (Carrageenin induced edema test); type: in vivo, rat (male Sprague Dawley); details: for % Edema Inhibition, 1 hour / % Edema Inhibition, 3 hours / % Edema Inhibition, 5 hours: oral, 30 min before carrageenin, dose mg/kg: ASA 100, XAA 120, XAA ester 196 (eq. 120 XAA), TAA 60, TAA ester 84.5 (eq. 60 TAA); for % Edema Inhibition, 1 hour: 1 hour after carrageenin; for % Edema Inhibition, 3 hours: 3 hours after carrageenin; for % Edema Inhibition, 5 hours: 5 hours after carrageenin; for anti-inflammatory versus antinociceptive action: conclusion in words from Examples 6 and 7
Experimental: Anti-inflammatory Activity (Carrageenin induced edema test)
Fifteen to twenty male rats of Sprague Dawley strain weighing 150-200 g, were employed for each compound tested. 0.1 ml of 1% carrageenin saline suspension was injected into the subplantar region of the right hind-paw. The test compounds were orally administered 30 minutes prior to the injection of carrageenin and the foot volume was determined 1,3 and 5 hours after the injection of carrageenin. The percent swelling in the foot was obtained by comparing the volume before and after the injection of carrageenin, and the rate of inhibition in the treated animals was calculated.

Compound | Relative strength, Tail pressure test [1] | Relative strength, Randall-Selitto test [2] | Increase (of ulceration evaluation) [3] | Evaluation (ulceration of the gastric epithelium) [3] | % Edema Inhibition, 1 hour [4] | % Edema Inhibition, 3 hours [4] | % Edema Inhibition, 5 hours [4] | anti-inflammatory versus antinociceptive action [4]
CC(=O)Oc1ccccc1C(=O)O [Acetylsalicylic acid (ASA), Acetylsalicylic acid] | 1.00 | 1.05 | 1.1 | 4.1 | 3.8% | 24.8% | 25.3% | 
CCCCC1C(=O)N(c2ccccc2)N(c2ccccc2)C1=O [Phenylbutazone] |  |  | 2.5 | 5.5 |  |  |  | 
Cc1cccc(Nc2ccccc2C(=O)OCOC(=O)C(C)(C)C)c1C [Pivaloyloxymethyl N-(2',3'-xylyl)anthranylate] | 0.48 | 1.74 | 0.4 | 3.4 | 33.3% | 36.4% | 31.3% | act as anti-inflammatory agents more than as antinociceptive agents
CC(C)(C)C(=O)OCOC(=O)c1ccccc1Nc1cccc(C(F)(F)F)c1 [Pivaloyloxymethyl N(3'-trifluorotolyl)-anthranylate] | 1.02 | 8.7 | 0.6 | 3.6 | 40.4% | 40.7% | 32.4% | act as anti-inflammatory agents more than as antinociceptive agents
O=C(O)c1ccccc1Nc1cccc(C(F)(F)F)c1 [N-(3'-trifluorotolyl)-anthranylic acid] | 0.5 | 5.3 | 1.9 | 4.9 | 24.3% | 29.3% | 28.3% | 
Cc1cccc(Nc2ccccc2C(=O)O)c1C [N-(2',3'-xylyl) anthranylic acid (XAA), N-(2',3'-xylyl) anthranylic acid] | 0.2 | 1.04 | 1.2 | 4.2 | 19.32% | 24.7% | 23.4% | 

Reference: patent US4277496A, “Methods of treating mammals suffering from inflammation and pain” (Laboratorios Bago S.A., priority 1980, dated 1981)
